What was measured:
[1] = test system: ERBB4; details: cited from earlier work
[2] = Safety: adverse events (TEAEs, SAEs, AESIs), vital signs, labs; type: in vivo, human; details: for Participants with any TEAE / Participants with any TEAE leading to death / Participants with any TEAE related to IMP / Participants with any severe TEAE / Participants with any treatment emergent AESI / Participants with any treatment emergent SAE: safety population
From the text: In terms of safety, […], adverse events of special interest (AESIs), vital signs, and laboratory analyses were to be reported.
Safety assessments included physical examinations, measurements of vital signs, electrocardiograms, clinical safety laboratory assessments, and pregnancy testing.
An AE is any untoward medical occurrence in a patient or clinical study participant, temporally associated with the use of study intervention, whether or not considered related to the study intervention.
An adverse event of special interest (AESI) is an AE (serious or nonserious) of scientific and medical concern specific to the Sponsor's product or program, for which ongoing monitoring and immediate notification by the Investigator to the Sponsor was required. Such events may have required further investigation in order to characterize and understand them. Adverse events of special interest may have been added, modified or removed during a study by protocol amendment. AESIs include the following: • Pregnancy of a participant entered in a study as well as pregnancy occurring in a female partner of a participant entered in a study with IMP. • Symptomatic overdose (serious or nonserious) with IMP. • Other project-specific AESI(s), including: severe infections including opportunistic infections; tuberculosis or initiation of medications for suspected tuberculosis; active COVID-19 infection as documented by a positive COVID-19 molecular test; major hemorrhagic events, including symptomatic bleeding in a critical area or organ such as the CNS, or intraocular bleeding, resulting in an SAE; serious adverse events (or non-serious adverse events with a severity level consistent with Grade 3 CTCAE of cytopenia; and atrial fibrillation.
The safety variables, including AEs, vital signs, physical examination, and laboratory values were to be summarized using descriptive statistics in each treatment group in the safety population.
All safety analyses were to be performed on the safety population. The baseline value is defined generally as the last available value before the first dose of IMP.
In general, AEs were to be analyzed in the following 3 categories: • Pre-treatment AEs: AEs that developed, worsened, or became serious during the pre-treatment period. • TEAEs: AEs that developed, worsened, or became serious during the treatment-emergent period. • Post-treatment AEs: AEs that developed, worsened, or became serious during the post-treatment period.

[3] = test system: BTK; details: preclinical assays; cited from earlier work
[4] = Participant disposition: completion, discontinuation and reasons; type: in vivo, human
From the text: Participants that met the criteria for a LOAC, at any time during the randomized IMP treatment phase, were to (be): • Discontinue early from IMP treatment, • Evaluated and receive treatment by the Investigator with standard of care according to standard medical practice. If practicable and safe, the participant was to undergo EOT Visit (Visit 14) assessment prior to the administration of rescue medications. • Resume their individual prescreening ICS/LABA background therapy and, • Followed for safety during a 4-week Post IMP Treatment Period.
Participants who discontinued IMP treatment prior to completing the 12-week IMP treatment (due to LOAC or due to early treatment discontinuation), were to be evaluated as soon as possible at the individual participant's EOT Visit and using procedures as planned for the EOT Visit at Week 12 (Visit 14). At their EOT visit, participants were to resume their prescreening ICS/LABA background therapy or appropriate therapy as needed per treating physician were to be resumed after the EOT study assessments had been performed and entered the 4-week safety follow-up period/Post IMP Treatment Period, concluding with the EOS Visit (Visit 16).

[5] = test system: B cell lymphocyte kinase (BLK); details: cited from earlier work
[6] = test system: 251 kinases sharing a common cysteine in their active site; details: cited from earlier work

CC(C)(C=C(C#N)C(=O)N1CCC[C@@H](n2nc(-c3ccc(Oc4ccccc4)cc3F)c3c(N)ncnc32)C1)N1CCN(C2COC2)CC1 (mixture of isomers) [rilzabrutinib, (R)-2-[3-[4-amino-3-(2-fluoro-4-phenoxy-phenyl)pyrazolo[3,4-d]pyrimidin-1-yl]piperidine-1-carbonyl]-4-methyl-4-[4-(oxetan-3-yl)piperazin-1-yl]pent-2-enenitrile]
IC50 [1]: 11 nM
overall safety ([2]; 400 mg BID and TID, asthma): generally safe, with no evidence of new safety concerns
Participants with any TEAE ([2]; 400 mg BID, N = 32): 14 (43.8) n (%)
Participants with any TEAE leading to death ([2]; 400 mg BID, N = 32): 0 n (%)
Participants with any TEAE related to IMP ([2]; 400 mg BID, N = 32): 5 (15.6) n (%)
Participants with any severe TEAE ([2]; 400 mg BID, N = 32): 0 n (%)
Participants with any treatment emergent AESI ([2]; 400 mg BID, N = 32): 1 (3.1) n (%)
Participants with any treatment emergent SAE ([2]; 400 mg BID, N = 32): 2 (6.3) n (%)
Participants with any TEAE ([2]; 400 mg TID, N = 64): 26 (40.6) n (%)
Participants with any TEAE leading to death ([2]; 400 mg TID, N = 64): 0 n (%)
Participants with any TEAE related to IMP ([2]; 400 mg TID, N = 64): 10 (15.6) n (%)
Participants with any severe TEAE ([2]; 400 mg TID, N = 64): 1 (1.6) n (%)
Participants with any treatment emergent AESI ([2]; 400 mg TID, N = 64): 3 (4.7) n (%)
Participants with any treatment emergent SAE ([2]; 400 mg TID, N = 64): 0 n (%)
Participants with any TEAE ([2]; combined BID and TID, N = 96): 40 (41.7) n (%)
Participants with any TEAE leading to death ([2]; combined BID and TID, N = 96): 0 n (%)
Participants with any TEAE related to IMP ([2]; combined BID and TID, N = 96): 15 (15.6) n (%)
Participants with any severe TEAE ([2]; combined BID and TID, N = 96): 1 (1.0) n (%)
Participants with any treatment emergent AESI ([2]; combined BID and TID, N = 96): 4 (4.2) n (%)
Participants with any treatment emergent SAE ([2]; combined BID and TID, N = 96): 2 (2.1) n (%)
binding to BTK over time [3]: persisted
Status at last contact: Dead ([4]; 400 mg BID (N = 32)): 0 n (%)
permanent study intervention discontinuation: Adverse event ([4]; 400 mg BID (N = 32)): 2 (6.3) n (%)
permanent study intervention discontinuation: Adverse event not related to COVID-19 ([4]; 400 mg BID (N = 32)): 2 (6.3) n (%)
permanent study intervention discontinuation: Adverse event related to COVID-19 ([4]; 400 mg BID (N = 32)): 0 n (%)
permanent study intervention discontinuation: Lack of efficacy ([4]; 400 mg BID (N = 32)): 0 n (%)
permanent study intervention discontinuation: Loss of asthma control (LOAC) ([4]; 400 mg BID (N = 32)): 8 (25.0) n (%)
study discontinuation: Adverse event ([4]; 400 mg BID (N = 32)): 1 (3.1) n (%)
study intervention withdrawal by subject: Adverse event ([4]; 400 mg BID (N = 32)): 1 (3.1) n (%)
Status at last contact: Dead ([4]; 400 mg TID (N = 64)): 0 n (%)
permanent study intervention discontinuation: Adverse event ([4]; 400 mg TID (N = 64)): 5 (7.8) n (%)
permanent study intervention discontinuation: Adverse event not related to COVID-19 ([4]; 400 mg TID (N = 64)): 2 (3.1) n (%)
permanent study intervention discontinuation: Adverse event related to COVID-19 ([4]; 400 mg TID (N = 64)): 3 (4.7) n (%)
permanent study intervention discontinuation: Lack of efficacy ([4]; 400 mg TID (N = 64)): 1 (1.6) n (%)
permanent study intervention discontinuation: Loss of asthma control (LOAC) ([4]; 400 mg TID (N = 64)): 10 (15.6) n (%)
study discontinuation: Adverse event ([4]; 400 mg TID (N = 64)): 0 n (%)
study intervention withdrawal by subject: Adverse event ([4]; 400 mg TID (N = 64)): 2 (3.1) n (%)
IC50 [5]: 6.3 nM
number of kinases inhibited (>90% inhibition) ([6]; 1 μM, panel of 251 kinases): 6 kinases
cross-reactivity with other molecules ([6]; in comparison to first and second generation BTKi): minimal cross-reactivity
